Calls of active or inactive are those of the source. No cut-off for these calls is given here.

For one data set, the target named is Cholinesterase (Homo sapiens, UniProt P06276).
Data set [1] deals with T1, Amyloid-beta precursor protein (Homo sapiens, UniProt P05067). The note with it: at 10 µM.
Description: Inhibition of HFIP pretreated Amyloid beta (1 to 42) (unknown origin) self-induced aggregation at 10 uM incubated for 24 hrs by Thioflavin T-based fluorometric assay
Data set [2] concerns the target T2, Acetylcholinesterase (Homo sapiens, UniProt P22303).
Description: Inhibition of recombinant human AChE using acetylthiocholine iodide as substrate preincubated for 20 mins followed by substrate addition by Ellman's method
The target in data set [3] is T1, Amyloid-beta precursor protein. Kind of data set: Inhibition of Amyloid beta (1 to 42) (unknown origin) self-induced aggregation incubated for 24 hrs by Thioflavin T-based fluorometric assay.
Data set [4] addresses T3, Beta-secretase 1 (Homo sapiens, UniProt P56817).
Description: Inhibition of recombinant human BACE-1 using M-2420 as substrate preincubated for 1 hr followed by substrate addition measured after 15 mins by FRET assay
In the next data set the test system is SH-SY5Y. Briefly: Cytotoxicity against human SH-SY5Y cells assessed as reduction in cell viability at 3 to 30 uM after 48 hrs by MTT assay. The format is cell-based. (Formazan colour is commonly taken as a measure of viable cells.)
In data set [5] the target is T3, Beta-secretase 1. Kind of data set: Inhibition of BACE-1 (unknown origin) using M-2420 as substrate preincubated for 1 hr followed by substrate addition measured after 15 mins by FRET assay.
Data set [6] deals with Mus musculus. Briefly: Hepatotoxicity in ICR mouse assessed as elevation in serum aspartate aminotransferase level dosed ig at equimolar dose of 30 mg/kg tacrine after 8 hrs by spectrophotometry analysis relative to control. The format is toxicity, organism-based. Particulars: in vivo, po.
Data set [7] deals with Mus musculus. The data set is classed as toxicity, organism-based, ICR. The note with it: in vivo, po, 30 mg/kg, 8 h.
For data set [8], the target named is T4, Acetylcholinesterase (Torpedo californica, UniProt P04058). Kind of data set: Noncompetitive inhibition of Torpedo californica AChE using ATCh as substrate assessed as dissociation rate constant preincubated for 90 mins followed by substrate addition by potentiometric titration method. Further details: species or system Tetronarce californica.
T4 sequence (P04058 whole entry): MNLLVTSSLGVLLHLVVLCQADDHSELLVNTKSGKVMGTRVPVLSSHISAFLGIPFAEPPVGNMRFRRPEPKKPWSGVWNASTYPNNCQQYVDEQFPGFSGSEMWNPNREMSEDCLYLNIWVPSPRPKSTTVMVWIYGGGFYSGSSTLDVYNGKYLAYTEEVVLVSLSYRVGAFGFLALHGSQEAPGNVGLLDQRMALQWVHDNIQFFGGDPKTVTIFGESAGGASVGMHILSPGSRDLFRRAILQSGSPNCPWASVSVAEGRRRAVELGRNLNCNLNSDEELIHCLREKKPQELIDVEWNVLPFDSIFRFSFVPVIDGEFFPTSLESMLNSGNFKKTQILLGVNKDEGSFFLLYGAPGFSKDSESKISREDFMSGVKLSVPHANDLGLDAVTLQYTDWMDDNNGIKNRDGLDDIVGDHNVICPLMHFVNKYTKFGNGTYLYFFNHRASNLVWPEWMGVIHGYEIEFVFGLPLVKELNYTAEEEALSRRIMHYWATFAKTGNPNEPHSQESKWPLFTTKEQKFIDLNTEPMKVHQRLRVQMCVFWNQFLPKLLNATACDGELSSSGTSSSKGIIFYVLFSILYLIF
For data set [9], the target named is Acetylcholinesterase (Torpedo californica) (UniProt P04058). Particulars: Tetronarce californica.
Acetylcholinesterase (Torpedo californica), sequence (P04058 22-564 limits assumed): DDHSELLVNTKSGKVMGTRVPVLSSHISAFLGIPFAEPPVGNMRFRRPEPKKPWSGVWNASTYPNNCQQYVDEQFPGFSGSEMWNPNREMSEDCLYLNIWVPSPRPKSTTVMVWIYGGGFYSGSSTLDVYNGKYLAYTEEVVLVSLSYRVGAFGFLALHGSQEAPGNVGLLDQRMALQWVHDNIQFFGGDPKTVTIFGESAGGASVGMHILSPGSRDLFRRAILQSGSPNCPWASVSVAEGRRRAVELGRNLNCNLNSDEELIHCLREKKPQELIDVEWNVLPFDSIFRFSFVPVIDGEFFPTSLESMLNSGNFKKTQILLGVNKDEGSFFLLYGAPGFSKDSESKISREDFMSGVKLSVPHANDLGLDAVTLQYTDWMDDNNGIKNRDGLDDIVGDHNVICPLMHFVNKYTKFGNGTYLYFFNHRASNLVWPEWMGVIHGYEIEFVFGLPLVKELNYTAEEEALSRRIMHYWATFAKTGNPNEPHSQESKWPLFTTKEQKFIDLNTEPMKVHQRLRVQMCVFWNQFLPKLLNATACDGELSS
Description: Noncompetitive inhibition of Torpedo californica AChE using ATCh as substrate assessed as second order association constant preincubated for 90 mins followed by substrate addition by potentiometric titration method
Data set [10] deals with T4, Acetylcholinesterase. Briefly: Competitive inhibition of Torpedo californica AChE using ATCh as substrate assessed as dissociation rate constant preincubated for 90 mins followed by substrate addition by potentiometric titration method. Further details: species or system Tetronarce californica.
For data set [11], the system named is Mus musculus. Kind of data set: Hepatotoxicity in ICR mouse assessed as serum aspartate aminotransferase level dosed ig at equimolar dose of 30 mg/kg tacrine after 8 hrs by spectrophotometry analysis (reference value: 113.3 +/- 30 U/L). The format is toxicity, organism-based. The note with it: in vivo, po.
For data set [12], the target named is Acetylcholinesterase (Torpedo californica) (UniProt P04058). The note with it: Tetronarce californica; 1 to 10 nM.
In data set [13] the target is T4, Acetylcholinesterase. Briefly: Noncompetitive inhibition of Torpedo californica AChE using ATCh as substrate preincubated for 90 mins followed by substrate addition by potentiometric titration method. Further details: species or system Tetronarce californica.
Data set [14] deals with Mus musculus. The format is toxicity, organism-based, ICR. Particulars: in vivo, po, 30 mg/kg, 36 h.
Data set [15] has as its system Mus musculus. Briefly: Hepatotoxicity in ICR mouse assessed as serum aspartate aminotransferase level dosed ig at equimolar dose of 30 mg/kg tacrine after 22 hrs by spectrophotometry analysis (reference value: […] +/- 31.1 U/L). The data set is classed as toxicity, organism-based. The note with it: in vivo, po.
Data set [16] has as its system Mus musculus. Kind of data set: Hepatotoxicity in ICR mouse assessed as serum alanine aminotransferase level dosed ig at equimolar dose of 30 mg/kg tacrine after 22 hrs by spectrophotometry analysis (reference value: 40.1 +/- 9.9 U/L). The format is toxicity, organism-based. The note with it: in vivo, po.
Data set [17] has as its target T2, Acetylcholinesterase. Briefly: Mixed-type inhibition of recombinant human AChE using acetylthiocholine iodide as substrate assessed as enzyme-substrate-inhibitor complex by Lineweaver-Burk double reciprocal plot method.
Data set [18] relates to Mus musculus. Briefly: Hepatotoxicity in ICR mouse assessed as elevation in serum alanine aminotransferase level dosed ig at equimolar dose of 30 mg/kg tacrine after 8 hrs by spectrophotometry analysis relative to control. The format is toxicity, organism-based. The note with it: in vivo, po.
Data set [19] concerns the target Acetylcholinesterase (Torpedo californica) (UniProt P04058). The note with it: Tetronarce californica; 0.3 nM.
The target of data set [20] is T4, Acetylcholinesterase. Briefly: Competitive inhibition of Torpedo californica AChE using ATCh as substrate preincubated for 90 mins followed by substrate addition by potentiometric titration method. Further details: species or system Tetronarce californica.
For data set [21], the system named is Mus musculus. Briefly: Hepatotoxicity in ICR mouse assessed as serum alanine aminotransferase level dosed ig at equimolar dose of 30 mg/kg tacrine after 36 hrs by spectrophotometry analysis (reference value: 38.1 +/- 8.2 U/L). The format is toxicity, organism-based. Particulars: in vivo, po.
In data set [22] the target is T2, Acetylcholinesterase. Briefly: Mixed-type inhibition of recombinant human AChE using acetylthiocholine iodide as substrate assessed as enzyme-inhibitor complex by Lineweaver-Burk double reciprocal plot method.
Data set [23] deals with Acetylcholinesterase (Torpedo californica) (UniProt P04058). The note with it: Tetronarce californica. The source holds these as a separate data set.
Description: Competitive inhibition of Torpedo californica AChE using ATCh as substrate assessed as second order association constant preincubated for 90 mins followed by substrate addition by potentiometric titration method
A short description of the next data set: in vitro. Particulars: human, SH-SY5Y cells.

T2 sequence (P22303 whole entry): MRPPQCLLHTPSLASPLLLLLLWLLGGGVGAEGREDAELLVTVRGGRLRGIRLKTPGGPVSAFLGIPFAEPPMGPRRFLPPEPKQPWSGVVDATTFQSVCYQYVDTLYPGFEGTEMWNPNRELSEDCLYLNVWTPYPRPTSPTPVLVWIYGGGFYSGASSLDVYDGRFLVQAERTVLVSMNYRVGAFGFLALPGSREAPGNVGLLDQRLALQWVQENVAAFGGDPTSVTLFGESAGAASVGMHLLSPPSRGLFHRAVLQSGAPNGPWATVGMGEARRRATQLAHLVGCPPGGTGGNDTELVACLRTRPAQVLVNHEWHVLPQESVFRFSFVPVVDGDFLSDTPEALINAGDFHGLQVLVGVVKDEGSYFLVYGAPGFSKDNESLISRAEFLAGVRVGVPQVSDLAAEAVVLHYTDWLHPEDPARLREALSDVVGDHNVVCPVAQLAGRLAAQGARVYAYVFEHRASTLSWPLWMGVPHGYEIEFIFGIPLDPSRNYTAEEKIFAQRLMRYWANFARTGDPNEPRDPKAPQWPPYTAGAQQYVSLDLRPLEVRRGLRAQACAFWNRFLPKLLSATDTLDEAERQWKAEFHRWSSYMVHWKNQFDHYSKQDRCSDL
Cholinesterase, sequence (P06276 whole entry): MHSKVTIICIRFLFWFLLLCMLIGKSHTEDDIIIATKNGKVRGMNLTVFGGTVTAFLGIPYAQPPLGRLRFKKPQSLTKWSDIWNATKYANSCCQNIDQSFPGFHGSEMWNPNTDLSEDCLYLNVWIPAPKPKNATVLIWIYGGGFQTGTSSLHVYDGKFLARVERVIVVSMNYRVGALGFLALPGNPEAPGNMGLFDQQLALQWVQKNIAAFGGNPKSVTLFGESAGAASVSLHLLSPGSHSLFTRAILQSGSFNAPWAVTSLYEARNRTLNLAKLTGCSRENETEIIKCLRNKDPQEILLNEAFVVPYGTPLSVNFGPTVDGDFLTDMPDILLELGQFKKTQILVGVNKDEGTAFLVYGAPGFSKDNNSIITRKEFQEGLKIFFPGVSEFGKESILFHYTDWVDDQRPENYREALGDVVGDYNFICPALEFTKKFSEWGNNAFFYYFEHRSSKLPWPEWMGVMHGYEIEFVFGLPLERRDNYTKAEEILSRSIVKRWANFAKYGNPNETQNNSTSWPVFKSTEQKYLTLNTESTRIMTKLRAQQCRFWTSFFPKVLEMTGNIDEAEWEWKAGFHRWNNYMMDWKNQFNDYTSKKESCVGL
T3 sequence (P56817 whole entry): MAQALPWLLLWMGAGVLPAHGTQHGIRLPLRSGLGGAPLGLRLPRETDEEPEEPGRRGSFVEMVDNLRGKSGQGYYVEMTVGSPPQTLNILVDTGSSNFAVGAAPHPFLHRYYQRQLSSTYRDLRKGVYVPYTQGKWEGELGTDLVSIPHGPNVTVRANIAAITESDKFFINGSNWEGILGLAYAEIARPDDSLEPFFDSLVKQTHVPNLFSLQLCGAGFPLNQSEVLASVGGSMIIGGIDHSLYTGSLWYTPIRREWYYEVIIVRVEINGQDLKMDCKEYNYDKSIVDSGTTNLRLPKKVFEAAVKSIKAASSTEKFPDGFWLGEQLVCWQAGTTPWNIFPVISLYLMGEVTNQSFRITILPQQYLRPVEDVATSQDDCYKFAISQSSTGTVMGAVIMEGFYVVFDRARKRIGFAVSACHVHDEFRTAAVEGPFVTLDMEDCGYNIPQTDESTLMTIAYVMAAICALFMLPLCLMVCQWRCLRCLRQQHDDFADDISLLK
T1 sequence (P05067 whole entry): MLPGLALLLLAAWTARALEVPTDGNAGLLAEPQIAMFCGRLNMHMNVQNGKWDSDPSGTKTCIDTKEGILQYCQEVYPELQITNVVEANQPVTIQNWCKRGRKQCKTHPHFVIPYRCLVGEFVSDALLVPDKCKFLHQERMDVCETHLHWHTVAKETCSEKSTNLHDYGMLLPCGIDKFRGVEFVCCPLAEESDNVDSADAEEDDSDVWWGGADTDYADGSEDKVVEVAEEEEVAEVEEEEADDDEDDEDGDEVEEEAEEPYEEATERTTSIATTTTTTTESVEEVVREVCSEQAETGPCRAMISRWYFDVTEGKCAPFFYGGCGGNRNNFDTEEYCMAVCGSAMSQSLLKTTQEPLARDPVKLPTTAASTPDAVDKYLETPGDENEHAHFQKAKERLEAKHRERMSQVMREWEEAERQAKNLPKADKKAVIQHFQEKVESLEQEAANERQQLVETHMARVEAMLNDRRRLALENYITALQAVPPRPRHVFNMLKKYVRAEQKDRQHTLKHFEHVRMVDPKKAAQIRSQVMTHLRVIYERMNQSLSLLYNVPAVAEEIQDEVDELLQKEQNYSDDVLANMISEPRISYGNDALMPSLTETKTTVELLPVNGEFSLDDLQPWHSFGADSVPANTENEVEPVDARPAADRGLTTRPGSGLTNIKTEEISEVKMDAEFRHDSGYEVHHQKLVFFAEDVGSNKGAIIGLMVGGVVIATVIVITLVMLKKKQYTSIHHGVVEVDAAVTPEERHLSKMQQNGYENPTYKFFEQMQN
Description for in vitro: Cytotoxicity against human SH-SY5Y cells assessed as cell viability at 30 uM after 48 hrs by MTT assay

As for `COc1cccc2cc(CNCCCCCCNc3c4c(nc5ccccc35)CCCC4)oc12`, the IC50 (usually the midpoint of a concentration-inhibition curve) came out at 0.49 nM at Cholinesterase and 15.3 nM against Acetylcholinesterase [2]. For the same compound, the inhibition (in general, the change of the read-out against control, counted positive when it falls) in data set [1] turned out to be 52%.
`O=C(NCCCCCCNc1c2c(nc3ccccc13)CCCC2)c1cc2ccccc2o1`: the IC50 at Cholinesterase worked out at 4.68 nM; against Acetylcholinesterase [2], 424 nM. The inhibition in data set [1] is 13.7%.
For `c1ccc2c(NCCCCCCCNc3c4c(nc5ccccc35)CCCC4)c3c(nc2c1)CCCC3`, the IC50 in [3] turned out to be 8400 nM. Moreover, the inhibition in data set [1] came to 50.1%.
Consider `O=C(NCCCCCCNc1c2c(nc3ccccc13)CCC2)c1cc2ccccc2o1`, for which the IC50 amounted to 15.7 nM against Cholinesterase and 545 nM against Acetylcholinesterase [2]. The compound further showed an inhibition in data set [1] of 18.7%.
For `c1ccc2oc(CN(CCCCCCCNc3c4c(nc5ccccc35)CCCCC4)Cc3cc4ccccc4o3)cc2c1`, the IC50 at Cholinesterase came out at 17.9 nM; against Acetylcholinesterase [2] it was 200 nM. Besides, the inhibition in data set [1] turned out to be 39.8%.
The corresponding values for `O=C(NCCCCCCCNc1c2c(nc3ccccc13)CCC2)c1cc2ccccc2o1` are 30.9 nM, 48.6 nM and 10.2%.
Turning to `c1ccc2oc(CN(CCCCCCCNc3c4c(nc5ccccc35)CCCC4)Cc3cc4ccccc4o3)cc2c1`, the values for the IC50 at Beta-secretase 1 [4], against Cholinesterase and against Acetylcholinesterase [2] were 620 nM, 6.86 nM and 117 nM, respectively. In addition, the inhibition in data set [1] was determined as 44.5%.
Take `c1ccc2oc(CN(CCCCCCNc3c4c(nc5ccccc35)CCC4)Cc3cc4ccccc4o3)cc2c1`: the IC50 on Cholinesterase worked out at 8.89 nM; at Acetylcholinesterase [2], 2070 nM. The compound further came in with an inhibition in data set [1] of 62.2%.
As for `COc1cccc2cc(C(=O)NCCCCCCCNc3c4c(nc5ccccc35)CCC4)oc12`, the IC50 at Cholinesterase was 26.1 nM; against Acetylcholinesterase [2], 993 nM. The inhibition in [1] amounted to 19.6%.
Regarding `O=C(NCCCCCCCNc1c2c(nc3ccccc13)CCCC2)c1cc2ccccc2o1`, in the data set on SH-SY5Y, the Activity entry is on record as “Toxic”. In addition, the IC50 at Cholinesterase is 6.9 nM; on Acetylcholinesterase [2] it was 76.9 nM. In data set [1], the inhibition came to 26.2%.
On Beta-secretase 1 [5], `NC1=NC(c2ccc(F)cc2)NC(=O)N1` (stereo unspecified) yielded an IC50 of 18000 nM.
Take `COc1cccc2cc(C(=O)NCCCCCCNc3c4c(nc5ccccc35)CCCCC4)oc12`: the values for the IC50 on Cholinesterase and on Acetylcholinesterase [2] were 30 nM and 32.3 nM, respectively. The same compound had an inhibition in [1] of 18.7%.
In the same order, the values of `c1ccc2oc(CNCCCCCCNc3c4c(nc5ccccc35)CCC4)cc2c1` are 2.48 nM, 47 nM and 9.3%.
Take `c1ccc2oc(CNCCCCCCCNc3c4c(nc5ccccc35)CCCC4)cc2c1`: the “fold change (FC)” value in the data set with Mus musculus [6] came out at 1.22; in the data set with Mus musculus [18], 1.16. Also, the Activity in the data set with Mus musculus [7] was found to be 45.1 U/L; in the data set with Mus musculus [11], 138.3 U/L; in the data set on Mus musculus [14], 114.7 U/L; in the data set on Mus musculus [15], 134.5 U/L; in the data set with Mus musculus [16], 48.2 U/L; in the data set on Mus musculus [21] it was 42 U/L. The values for the Kd at Acetylcholinesterase [8] and on Acetylcholinesterase [10] were 0.031 s⁻¹ and 0.032 s⁻¹, respectively. The Ka in data set [9] and in data set [23] was 1.45 ×10⁷ /M/s throughout. For the same compound, the inhibition result in data set [12] and in data set [19] was “Active” throughout. The Ki (in general, the dissociation constant of the complex between target and ligand, obtained from inhibition or displacement) was 2.1 nM at Acetylcholinesterase [13], 1.04 nM at Acetylcholinesterase [17], 2.2 nM on Acetylcholinesterase [20] and 0.72 nM at Acetylcholinesterase [22]. The IC50 at Beta-secretase 1 [4] is 1350 nM; against Cholinesterase, 2.18 nM; against Acetylcholinesterase [2], 0.86 nM. Also, the inhibition in data set [1] was 61.3%. The viability (in general, a per cent measure of how many cells are alive, often set against a control) at 48 h, 30 µM in the data set “in vitro” was 63%.
For `c1ccc2oc(CNCCCCCCCNc3c4c(nc5ccccc35)CCC4)cc2c1`, the IC50 came to 2.54 nM at Cholinesterase and 10.8 nM on Acetylcholinesterase [2]. In [1], this compound displayed an inhibition of 76.2%.
As for `COc1cccc2cc(CN(CCCCCCNc3c4c(nc5ccccc35)CCCC4)Cc3cc4cccc(OC)c4o3)oc12`, the IC50 on Beta-secretase 1 [4] stood at 190 nM; against Cholinesterase it was 0.48 nM; against Acetylcholinesterase [2], 260 nM. Also, the Activity entry in the data set with SH-SY5Y is reported as “Toxic”. In data set [1], this compound showed an inhibition of 44.6%.
Regarding `COc1cccc2cc(CNCCCCCCCNc3c4c(nc5ccccc35)CCCCC4)oc12`, the IC50 came out at 1.23 nM on Cholinesterase and 2.56 nM on Acetylcholinesterase [2]. In data set [1], this compound displayed an inhibition of 31.9%.
The corresponding values for `COc1cccc2cc(CNCCCCCCNc3c4c(nc5ccccc35)CCC4)oc12` are 1.3 nM, 63.1 nM and 64.1%.
For `COc1cccc2cc(C(=O)NCCCCCCCNc3c4c(nc5ccccc35)CCCC4)oc12`, the IC50 at Beta-secretase 1 [4] came out at 430 nM; on Cholinesterase, 7.35 nM; against Acetylcholinesterase [2], 44.2 nM. Moreover, the inhibition in data set [1] was 42.5%.
With `COc1cccc2cc(CN(CCCCCCCNc3c4c(nc5ccccc35)CCCCC4)Cc3cc4cccc(OC)c4o3)oc12`, the IC50 was 4.87 nM against Cholinesterase and 199 nM on Acetylcholinesterase [2]. Further, in data set [1], the inhibition came to 37.3%.
In the same order, the values of `c1ccc2oc(CN(CCCCCCCNc3c4c(nc5ccccc35)CCC4)Cc3cc4ccccc4o3)cc2c1` are 12.8 nM, 222 nM and 30.7%.
Consider `COc1cccc2cc(CN(CCCCCCNc3c4c(nc5ccccc35)CCC4)Cc3cc4cccc(OC)c4o3)oc12`, for which the results for the IC50 at Cholinesterase and against Acetylcholinesterase [2] were 2.3 nM and 7490 nM, respectively. In data set [1], this compound showed an inhibition of 38.5%.
In the same order, the values of `COc1cccc2cc(C(=O)NCCCCCCNc3c4c(nc5ccccc35)CCC4)oc12` are 80.6 nM, 1680 nM and 32.6%.
The corresponding values for `COc1cccc2cc(CN(CCCCCCNc3c4c(nc5ccccc35)CCCCC4)Cc3cc4cccc(OC)c4o3)oc12` are 2.35 nM, 1040 nM and 25%.
As for `COc1cccc2cc(C(=O)NCCCCCCCNc3c4c(nc5ccccc35)CCCCC4)oc12`, the IC50 on Cholinesterase is 31.9 nM; against Acetylcholinesterase [2] it was 416 nM. The inhibition in data set [1] was 17.7%.
In the case of `O=C(NCCCCCCCNc1c2c(nc3ccccc13)CCCCC2)c1cc2ccccc2o1`, the results for the half-inhibitory concentration (IC50) against Cholinesterase and on Acetylcholinesterase [2] were 11.6 nM and 323 nM, respectively. This compound returned an inhibition in data set [1] of 17.3%.
For the compound `COc1cccc2cc(C(=O)NCCCCCCNc3c4c(nc5ccccc35)CCCC4)oc12`, the IC50 is 10.2 nM at Cholinesterase and 24.4 nM against Acetylcholinesterase [2]. The compound further came in with an inhibition in [1] of 40.2%.
On to `O=C(NCCCCCCNc1c2c(nc3ccccc13)CCCCC2)c1cc2ccccc2o1`, for which the concentration for half-maximal inhibition (IC50) against Cholinesterase was determined as 10.8 nM; at Acetylcholinesterase [2], 308 nM. In addition, in [1], the inhibition turned out to be 24.2%.

Values taken from ChEMBL document CHEMBL3751805, “Novel Tacrine-Benzofuran Hybrids as Potent Multitarget-Directed Ligands for the Treatment of Alzheimer's Disease: Design, Synthesis, Biological Evaluation, and X-ray Crystallography” (J Med Chem, 2016).
